Data: patent publication US20260258039A1, “AROMATIC COMPOUND, METHOD FOR PREPARING SAME, AND USE THEREOF IN PREPARATION OF ESTROGEN RECEPTOR DEGRADER” (Hinova Pharmaceuticals Inc., priority 2022, published 2026)
Read-outs that look alike come from different tables or passages of the source.

Target: T1, ER (Homo sapiens, UniProt P03372)
T1 construct: T47D breast cancer cells were subcultured in cell culture medium; endogenous in cells; host or cells: T47D breast cancer cells
T1 sequence (P03372 1-595): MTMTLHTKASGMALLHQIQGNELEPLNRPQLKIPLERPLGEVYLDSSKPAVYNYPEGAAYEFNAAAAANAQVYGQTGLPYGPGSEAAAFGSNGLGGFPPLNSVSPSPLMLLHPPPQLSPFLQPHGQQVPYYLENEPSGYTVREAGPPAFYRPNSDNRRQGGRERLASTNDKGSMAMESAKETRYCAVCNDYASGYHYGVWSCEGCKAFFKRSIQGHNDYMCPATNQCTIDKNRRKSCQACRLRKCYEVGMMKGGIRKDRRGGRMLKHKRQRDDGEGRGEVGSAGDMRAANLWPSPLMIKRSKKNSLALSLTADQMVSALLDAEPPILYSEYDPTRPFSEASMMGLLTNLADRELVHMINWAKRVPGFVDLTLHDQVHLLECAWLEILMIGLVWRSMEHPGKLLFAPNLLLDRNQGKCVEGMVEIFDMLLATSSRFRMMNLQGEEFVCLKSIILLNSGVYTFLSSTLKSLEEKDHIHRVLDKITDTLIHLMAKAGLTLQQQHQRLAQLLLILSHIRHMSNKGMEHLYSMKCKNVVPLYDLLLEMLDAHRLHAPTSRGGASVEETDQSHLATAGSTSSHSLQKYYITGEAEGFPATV
Assay: Degradation activities on ER (ELISA) in T47D breast cancer cells
Type: cell-based
Conditions: T47D cells, 24 h, ELISA; for DC50: concentration required to degrade 50% of the target protein; for Dmax: maximum percentage of target protein degraded
Experimental: T47D breast cancer cells were subcultured in cell culture medium, and then the cells in good growth condition were seeded into 96-well plates at 80 µL/well, with 2.5×10^4 cells per well. The cells were incubated in a 37° C., 5% CO2 incubator for 3 days. The drug was prepared into a 10 mM stock solution with dimethyl sulfoxide (DMSO). Prior to use, the stock solution was diluted with cell culture medium to obtain six final concentrations (100 nM, 25 nM, 6.25 nM, 1.56 nM, 0.39 nM, and […]), and gently mixed. Additionally, negative control wells (only containing culture medium) and positive control wells (only containing cells and DMSO) were included. After the cells were incubated in the incubator for 24 h, the cells were rinsed once with ice-cold 1×PBS. […] The plate was sealed with plastic film, and incubated in a 37° C. incubator for 2 h. The film was removed. 200 μL of 1× washing buffer was added to each well, and then the plate was shaken for 5 min. The washing buffer was discarded, and the plate was pat-dried. The plate was washed four times. 100 μL of freshly prepared detection antibody (green) was added to each well of the ELISA plate. The plate was sealed with plastic film, and then incubated in a 37° C. incubator for 1 h. The film was removed, and the detection antibody was discarded. The plate was pat-dried. 200 μL of 1× washing buffer was added to each well, and then the plate was shaken for 5 min. The washing buffer was discarded, and the plate was pat-dried. The plate was washed four times. 100 μL of freshly prepared HRP-labeled secondary antibody (red) was added to each well of the ELISA plate. The plate was sealed with plastic film, and incubated in a 37° C. incubator for 30 min. The film was removed, the secondary antibody was discarded, and the plate was pat-dried, followed by adding 200 μL of 1× washing buffer to each well. The plate was shaken for 5 min, and the washing buffer was discarded before pat-drying the plate. The plate was washed four times. 100 μl of TMB substrate was added to each well of the ELISA plate, followed by incubating in a 37° C. incubator for 5 min. 100 μL of STOP solution was added to each well of the ELISA plate, and the plate was gently shaken for a few seconds. The bottom of each well was wiped with lint-free cloth. Within 30 min after adding the STOP solution, the absorbance was read at 450 nm. […] The data were analyzed using the Dose-response equation in GraphPad Prism8 software to obtain the DC50 and Dmax values, and both of them are important indicators for measuring the degradation activities of compounds on target proteins. […] The Dmax value represents the maximum percentage of target protein that can be degraded by the compound.

DC50 | Dmax (read-out: Dmax) | Dmax | SMILES
< 10 nM | > 75% | – | O=C1CCC(N2Cc3cc(N4CCC(N5CC6(CCN(c7ccc([C@@H]8c9ccc(O)cc9CC[C@@H]8c8ccccc8)cc7F)CC6)C5)CC4)ccc3C2=O)C(=O)N1 (stereo partly drawn) [Example 69, 3-(5-(4-(7-(2-fluoro-4-((1,2-cis)-6-hydroxyl-2-phenyl-1,2,3,4-tetrahydronaphthalen-1-yl)phenyl)-2,7-diazaspiro[3.5]nonane-2-yl)piperidin-1-yl)-1-oxoisoinodolin-2-yl)pyridine-2,6-dione]
> 100 nM | < 50% | – | O=C1CCC(N2Cc3cc(N4CC5(CCN(CC6CCN(c7ccc([C@H]8c9ccc(O)cc9OC[C@H]8c8c(F)cccc8F)cc7F)CC6)CC5)C4)ccc3C2=O)C(=O)N1 (stereo partly drawn) [Example 71, 3-(5-(7-((1-(4-((3R,4S)-3-(2,6-difluorophenyl)-7-hydroxychroman-4-yl)-2-fluorophenyl)piperidin-4-yl)methyl)-2,7-diazaspiro[3.5]nonane-2-yl)-1-oxoisoinodolin-2-yl)piperidin-2,6-dione]
– | < 50% | – | O=C1CCC(N2Cc3cc(N4CC5(CCN(CC6CCN(c7ccc([C@H]8c9ccc(O)cc9OC[C@H]8c8c(F)cccc8F)cc7)CC6)CC5)C4)ccc3C2=O)C(=O)N1 (stereo partly drawn) [Example 72, 3-(5-(7-((1-(4-((3R,4S)-3-(2,6-difluorophenyl)-7-hydroxychroman-4-yl)phenyl)piperidin-4-yl)methyl)-2,7-diazaspiro[3.5]nonane-2-yl)-1-oxoisoindol-2-yl)piperidin-2,6-dione]
– | – | B (B: 75-50%) | O=C1CCC(N2Cc3cc(N4CC5(CCN(CC6CCN(c7ccc([C@@H]8c9ccc(O)cc9OC[C@@H]8c8c(F)cccc8F)cc7)CC6)CC5)C4)ccc3C2=O)C(=O)N1 (stereo partly drawn) [Example 77, 3-(5-(7-((1-(4-((3S,4R)-3-(2,6-difluorophenyl)-7-hydroxychroman-4-yl)phenyl)piperidin-4-yl)methyl)-2,7-diazaspiro[3.5]nonane-2-yl)-1-oxoisoinodolin-2-yl)piperidin-2,6-dione]
> 100 nM | < 50% | – | O=C1CC[C@@H](N2Cc3cc(N4CC5(CCN(CC6CCN(c7ccc([C@@H]8c9ccc(O)cc9OC[C@@H]8c8ccccc8F)cc7)CC6)CC5)C4)ccc3C2=O)C(=O)N1 [Example 90, (R)-3-(5-(7-((1-(4-((3S, 4R)-3-(2-fluorophenyl)-7-hydroxychroman-4-yl)phenyl)piperidin-4-yl)methyl)-2,7-diazaspiro[3.5]nonane-2-yl)-1-oxoisoinodolin-2-yl)piperidin-2,6-dione]
< 10 nM | > 75% | – | O=C1CC[C@H](N2Cc3cc(N4CC5(CCN(CC6CCN(c7ccc([C@@H]8c9ccc(O)cc9OC[C@@H]8c8ccccc8F)cc7)CC6)CC5)C4)ccc3C2=O)C(=O)N1 [Example 91, (S)-3-(5-(7-((1-(4-((3S, 4R)-3-(2-fluorophenyl)-7-hydroxychroman-4-yl)phenyl)piperidin-4-yl)methyl)-2,7-diazaspiro[3.5]nonane-2-yl)-1-oxoisoinodolin-2-yl)piperidin-2,6-dione]
10 to 50 nM | 50 to 75% | – | O=C1CCC(N2Cc3cc(N4CC5(CCN(CC6CCN(c7ccc([C@@H]8c9ccc(O)cc9OC[C@@H]8CC(F)(F)F)cc7)CC6)CC5)C4)ccc3C2=O)C(=O)N1 (stereo partly drawn) [Example 92, 3-(5-(7-((1-(4-(cis-7-hydroxyl-3-(2,2,2-trifluoroethyl)chroman-4-yl)phenyl)piperidin-4-yl)methyl)-2,7-diazaspiro[3.5]nonane-2-yl)-1-oxoisoinodolin-2-yl)piperidin-2,6-dione]

The next lines start with the compound.

SMILES | DC50 | Dmax (read-out: Dmax) | Dmax
O=C1CCC(N2Cc3cc(N4CC5(CCN(CC6CCN(c7c(F)cc([C@@H]8c9ccc(OCc%10ccccc%10)cc9OC[C@@H]8c8ccccc8F)cc7F)CC6)CC5)C4)ccc3C2=O)C(=O)N1 (stereo partly drawn) [Example 51, 3-(5-(7-((1-(4-(cis-7-(benzyloxy)-3-(2-fluorophenyl)chroman-4-yl)-2,6-difluorophenyl)piperidin-4-yl)methyl)-2,7-diazaspiro[3.5]nonane-2-yl)-1-oxoisoinodolin-2-yl)piperidin-2,6-one] | > 100 nM | < 50% | –
O=C1CCC(N2Cc3cc(N4CC5(CCN(CC6CCN(c7c(F)cc(C8=C(c9ccccc9F)COc9cc(OCc%10ccccc%10)ccc98)cc7F)CC6)CC5)C4)ccc3C2=O)C(=O)N1 (stereo not shown) [Example 52] | > 100 nM | < 50% | –
O=C1CCC(N2Cc3cc(N4CCC5(CCN(C6CCN(c7ccc([C@@H]8c9ccc(O)cc9CC[C@@H]8c8ccccc8)cc7)CC6)C5)C4)ccc3C2=O)C(=O)N1 (stereo partly shown) [Example 66, 3-(5-(7-(1-(4-(6-hydroxyl-2-phenyl-1,2,3,4-tetrahydronaphthalen-1-yl)phenyl)piperidin-4-yl)-2,7-diazaspiro[4.4]nonane-2-yl)-1-oxoisoinodolin-2-yl)piperidin-2,6-dione] | > 100 nM | < 50% | –
O=C1CCC(N2Cc3cc(N4CCC(N5CC6(CCN(c7ccc([C@@H]8c9ccc(O)cc9CC[C@@H]8c8ccccc8F)cc7F)CC6)C5)CC4)ccc3C2=O)C(=O)N1 (stereo partly drawn) [Example 67, 3-(5-(4-(7-(2-fluoro-4-((1,2-cis)-2-(2-fluorophenyl)-6-hydroxyl-1,2,3,4-tetrahydronaphthalen-1-yl)phenyl)-2,7-diazaspiro[3.5]nonane-2-yl)piperidin-1-yl)-1-oxoisoinodolin-2-yl)pyridine-2,6-dione] | < 10 nM | > 75% | –
O=C1CCC(N2Cc3cc(N4CCC(N5CC6(CCN(c7ccc([C@@H]8c9ccc(O)cc9OC[C@@H]8c8ccccc8F)cc7F)CC6)C5)CC4)ccc3C2=O)C(=O)N1 (stereo partly drawn) [Example 68, 3-(5-(4-(7-(2-fluoro-4-((3,4-cis)-3-(2-fluorophenyl)-7-hydroxyl-chroman-4-yl)phenyl)-2,7-diazaspiro[3.5]nonane-2-yl)piperidin-1-yl)-1-oxoisoinodolin-2-yl)pyridine-2,6-dione] | < 10 nM | > 75% | –
